From PMC7522982, “PKIS deep dive yields a chemical starting point for dark kinases and a cell active BRSK2 inhibitor” (Scientific Reports, 2020)

Columns and labels:
Experiment in all cases: DiscoverX scanMAX competition binding assay
Design in all cases: purchased Eurofins DiscoverX (scanMAX) / Eurofins enzymatic assays
AURKB = AURKB (Homo sapiens, UniProt Q96GD4)
From the text: (§1) Based on its narrow profile when tested in the combined Nanosyn and TSA panels, GW296115 was included in the recently released Kinase Chemogenomic Set (KCGS)[15]. All of the data presented in the Introduction section was collected prior to the inclusion of GW296115 in KCGS and everything that follows has been subsequently generated. Since its inclusion in PKIS and more recently KCGS, we have carried out a broader round of screening at DiscoverX. This profiling data has not been previously released and is reported here for the first time. GW296115 was profiled against 403 wild type human kinases at 1 μM using the DiscoverX scanMAX screening platform, which employs an active site-directed competition binding assay to quantitatively measure interactions between test compounds and kinases, [16]. GW296115 inhibited 25 kinases > 90% at 1 μM, resulting in a selectivity index (S10) of 0.062 at 1 μM (Table S2, Fig. 1C)[17].
(§2) The scanMAX assays were performed at Eurofins DiscoverX Corporation as previously described.

AURKC = AURKC (Homo sapiens, UniProt Q9UQB9)
From the text: as §1, §2

CHEK2 = CHEK2 (Homo sapiens, UniProt O96017)
CHEK2, sequence (O96017 whole entry): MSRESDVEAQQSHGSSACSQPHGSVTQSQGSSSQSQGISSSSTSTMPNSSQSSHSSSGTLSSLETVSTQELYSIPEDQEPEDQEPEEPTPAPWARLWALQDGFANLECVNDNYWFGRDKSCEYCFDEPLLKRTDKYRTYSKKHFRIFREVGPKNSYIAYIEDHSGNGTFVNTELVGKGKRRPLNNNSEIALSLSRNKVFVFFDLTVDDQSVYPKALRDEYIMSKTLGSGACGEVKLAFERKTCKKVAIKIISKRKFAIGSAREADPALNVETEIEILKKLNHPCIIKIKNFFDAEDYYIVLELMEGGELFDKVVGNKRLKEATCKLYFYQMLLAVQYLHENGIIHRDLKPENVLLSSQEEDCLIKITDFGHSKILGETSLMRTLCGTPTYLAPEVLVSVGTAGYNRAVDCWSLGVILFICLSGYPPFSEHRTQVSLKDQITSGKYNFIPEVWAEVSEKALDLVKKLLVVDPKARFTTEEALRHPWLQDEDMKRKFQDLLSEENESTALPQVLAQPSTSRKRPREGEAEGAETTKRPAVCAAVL
From the text: as §1, §2

DAPK2 = DAPK2 (Homo sapiens, UniProt Q9UIK4)
From the text: as §1, §2

DAPK3/ZIPK = DAPK3/ZIPK (Homo sapiens, UniProt O43293)
From the text: as §1, §2

LRRK2 = LRRK2 (Homo sapiens, UniProt Q5S007)
From the text: as §1, §2

MAP3K11/MLK3 = MAP3K11/MLK3 (Homo sapiens, UniProt Q16584)
MAP3K11/MLK3, sequence (Q16584 whole entry): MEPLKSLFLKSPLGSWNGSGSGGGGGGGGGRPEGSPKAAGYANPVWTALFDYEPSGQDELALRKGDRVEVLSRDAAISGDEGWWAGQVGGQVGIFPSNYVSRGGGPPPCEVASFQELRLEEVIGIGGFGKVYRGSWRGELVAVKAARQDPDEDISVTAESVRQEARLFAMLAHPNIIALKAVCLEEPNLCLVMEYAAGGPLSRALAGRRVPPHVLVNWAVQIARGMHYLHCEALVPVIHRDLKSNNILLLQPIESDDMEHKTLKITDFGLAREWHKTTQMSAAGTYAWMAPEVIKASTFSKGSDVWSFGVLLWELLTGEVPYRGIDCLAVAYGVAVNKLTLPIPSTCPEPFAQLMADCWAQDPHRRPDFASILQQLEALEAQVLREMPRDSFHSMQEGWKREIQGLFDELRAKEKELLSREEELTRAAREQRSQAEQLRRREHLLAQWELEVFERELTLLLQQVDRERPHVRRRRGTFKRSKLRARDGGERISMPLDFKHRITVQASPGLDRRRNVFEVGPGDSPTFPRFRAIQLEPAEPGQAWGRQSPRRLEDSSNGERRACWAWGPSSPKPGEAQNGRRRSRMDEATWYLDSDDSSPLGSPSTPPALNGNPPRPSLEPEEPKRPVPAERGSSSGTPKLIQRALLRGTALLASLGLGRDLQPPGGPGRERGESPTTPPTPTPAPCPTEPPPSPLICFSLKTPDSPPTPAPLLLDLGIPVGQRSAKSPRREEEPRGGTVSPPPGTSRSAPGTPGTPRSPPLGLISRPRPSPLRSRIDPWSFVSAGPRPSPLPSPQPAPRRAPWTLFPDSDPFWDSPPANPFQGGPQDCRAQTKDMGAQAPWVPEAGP
From the text: as §1, §2

MAP3K9/MLK1 = MAP3K9/MLK1 (Homo sapiens, UniProt P80192)
From the text: as §1, §2

MAP4K4/HGK = MAP4K4/HGK (Homo sapiens, UniProt O95819)
From the text: as §1, §2

MINK1/MINK = MINK1/MINK (Homo sapiens, UniProt Q8N4C8)
MINK1/MINK, sequence (Q8N4C8 whole entry): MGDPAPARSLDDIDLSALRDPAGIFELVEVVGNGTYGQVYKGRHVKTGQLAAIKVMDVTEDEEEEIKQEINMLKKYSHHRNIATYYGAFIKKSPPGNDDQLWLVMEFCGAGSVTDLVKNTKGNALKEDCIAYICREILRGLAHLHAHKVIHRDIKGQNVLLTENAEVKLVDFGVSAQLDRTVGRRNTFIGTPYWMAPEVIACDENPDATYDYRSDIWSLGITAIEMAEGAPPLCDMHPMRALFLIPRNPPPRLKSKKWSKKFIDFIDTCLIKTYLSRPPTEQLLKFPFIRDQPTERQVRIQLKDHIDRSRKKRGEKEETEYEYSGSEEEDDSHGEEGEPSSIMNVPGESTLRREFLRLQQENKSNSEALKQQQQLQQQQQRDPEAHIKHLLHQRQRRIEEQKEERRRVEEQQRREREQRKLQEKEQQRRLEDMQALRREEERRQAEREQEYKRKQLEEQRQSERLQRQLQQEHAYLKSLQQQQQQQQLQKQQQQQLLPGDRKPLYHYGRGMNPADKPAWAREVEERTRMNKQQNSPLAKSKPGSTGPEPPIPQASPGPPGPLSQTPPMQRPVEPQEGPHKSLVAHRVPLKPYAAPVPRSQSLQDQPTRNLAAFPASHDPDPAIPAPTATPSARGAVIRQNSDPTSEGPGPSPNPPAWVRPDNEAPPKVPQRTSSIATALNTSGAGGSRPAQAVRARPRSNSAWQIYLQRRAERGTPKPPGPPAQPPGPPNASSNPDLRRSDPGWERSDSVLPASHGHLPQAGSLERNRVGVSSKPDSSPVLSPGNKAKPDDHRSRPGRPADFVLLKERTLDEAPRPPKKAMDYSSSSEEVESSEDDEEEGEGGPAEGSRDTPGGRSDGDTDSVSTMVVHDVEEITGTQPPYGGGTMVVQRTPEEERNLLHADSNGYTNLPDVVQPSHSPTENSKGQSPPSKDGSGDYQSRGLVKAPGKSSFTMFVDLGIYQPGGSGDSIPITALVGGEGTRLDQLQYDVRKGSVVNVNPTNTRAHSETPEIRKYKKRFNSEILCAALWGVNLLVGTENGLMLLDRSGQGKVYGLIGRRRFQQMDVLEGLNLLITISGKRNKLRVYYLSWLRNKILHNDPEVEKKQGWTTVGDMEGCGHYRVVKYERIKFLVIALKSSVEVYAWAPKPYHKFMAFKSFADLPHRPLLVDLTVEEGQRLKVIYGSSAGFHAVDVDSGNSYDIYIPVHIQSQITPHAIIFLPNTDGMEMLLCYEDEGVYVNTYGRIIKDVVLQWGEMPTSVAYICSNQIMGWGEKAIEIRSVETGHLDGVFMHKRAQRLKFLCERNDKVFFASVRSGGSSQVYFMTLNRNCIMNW
From the text: as §1, §2

MYLK/MLCK/smMLCK = MYLK/MLCK/smMLCK (Homo sapiens, UniProt Q15746)
From the text: as §1, §2

PDGFRA = PDGFRA (Homo sapiens, UniProt P16234)
From the text: as §1, §2

PDGFRB = PDGFRB (Homo sapiens, UniProt P09619)
From the text: as §1, §2

PIM3 = PIM3 (Homo sapiens, UniProt Q86V86)
From the text: as §1, §2

PRKG2/PKG2 = PRKG2/PKG2 (Homo sapiens, UniProt Q13237)
PRKG2/PKG2, sequence (Q13237 whole entry): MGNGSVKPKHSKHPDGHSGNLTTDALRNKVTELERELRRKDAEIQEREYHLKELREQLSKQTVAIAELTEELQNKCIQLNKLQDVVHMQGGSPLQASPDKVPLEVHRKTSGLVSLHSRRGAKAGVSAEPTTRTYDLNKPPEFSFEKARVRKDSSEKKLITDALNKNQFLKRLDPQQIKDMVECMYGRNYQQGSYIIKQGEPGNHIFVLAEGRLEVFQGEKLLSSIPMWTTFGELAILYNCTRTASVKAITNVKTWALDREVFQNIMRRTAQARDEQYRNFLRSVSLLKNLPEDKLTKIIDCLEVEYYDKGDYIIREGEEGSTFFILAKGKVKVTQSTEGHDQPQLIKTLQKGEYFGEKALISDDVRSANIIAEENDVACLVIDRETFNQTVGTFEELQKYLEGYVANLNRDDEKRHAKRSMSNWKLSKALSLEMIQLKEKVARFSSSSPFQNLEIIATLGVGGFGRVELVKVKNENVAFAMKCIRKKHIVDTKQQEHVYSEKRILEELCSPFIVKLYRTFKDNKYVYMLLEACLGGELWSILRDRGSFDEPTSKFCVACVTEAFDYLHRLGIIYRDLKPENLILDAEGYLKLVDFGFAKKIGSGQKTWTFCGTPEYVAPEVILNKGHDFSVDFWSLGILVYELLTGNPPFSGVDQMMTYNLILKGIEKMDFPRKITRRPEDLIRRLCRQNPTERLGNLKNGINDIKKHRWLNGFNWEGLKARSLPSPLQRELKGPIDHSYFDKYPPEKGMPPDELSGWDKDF
From the text: as §1, §2

RPS6KA6/RSK4 = RPS6KA6/RSK4 (Homo sapiens, UniProt Q9UK32)
RPS6KA6/RSK4, sequence (Q9UK32 whole entry): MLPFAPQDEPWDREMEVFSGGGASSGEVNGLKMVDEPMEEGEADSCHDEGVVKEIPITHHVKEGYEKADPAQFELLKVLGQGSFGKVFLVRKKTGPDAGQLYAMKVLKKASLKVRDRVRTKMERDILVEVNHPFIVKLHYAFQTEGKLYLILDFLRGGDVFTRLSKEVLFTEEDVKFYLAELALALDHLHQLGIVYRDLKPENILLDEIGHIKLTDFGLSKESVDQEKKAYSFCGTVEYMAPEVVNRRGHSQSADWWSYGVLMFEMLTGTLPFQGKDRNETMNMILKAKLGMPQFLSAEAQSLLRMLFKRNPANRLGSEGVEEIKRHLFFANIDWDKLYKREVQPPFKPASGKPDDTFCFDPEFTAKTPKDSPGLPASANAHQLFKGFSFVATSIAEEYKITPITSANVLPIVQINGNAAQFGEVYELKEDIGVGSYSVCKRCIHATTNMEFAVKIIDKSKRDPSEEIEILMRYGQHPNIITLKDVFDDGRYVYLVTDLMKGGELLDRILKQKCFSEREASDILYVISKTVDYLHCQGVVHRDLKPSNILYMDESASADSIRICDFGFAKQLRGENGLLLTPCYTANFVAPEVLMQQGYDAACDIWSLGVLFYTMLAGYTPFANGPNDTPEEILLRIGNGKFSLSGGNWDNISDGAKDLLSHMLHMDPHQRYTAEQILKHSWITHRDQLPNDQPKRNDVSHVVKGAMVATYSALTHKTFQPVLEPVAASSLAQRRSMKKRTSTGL
From the text: as §1, §2

SGK1/SGK = SGK1/SGK (Homo sapiens, UniProt O00141)
SGK1/SGK, sequence (O00141 whole entry): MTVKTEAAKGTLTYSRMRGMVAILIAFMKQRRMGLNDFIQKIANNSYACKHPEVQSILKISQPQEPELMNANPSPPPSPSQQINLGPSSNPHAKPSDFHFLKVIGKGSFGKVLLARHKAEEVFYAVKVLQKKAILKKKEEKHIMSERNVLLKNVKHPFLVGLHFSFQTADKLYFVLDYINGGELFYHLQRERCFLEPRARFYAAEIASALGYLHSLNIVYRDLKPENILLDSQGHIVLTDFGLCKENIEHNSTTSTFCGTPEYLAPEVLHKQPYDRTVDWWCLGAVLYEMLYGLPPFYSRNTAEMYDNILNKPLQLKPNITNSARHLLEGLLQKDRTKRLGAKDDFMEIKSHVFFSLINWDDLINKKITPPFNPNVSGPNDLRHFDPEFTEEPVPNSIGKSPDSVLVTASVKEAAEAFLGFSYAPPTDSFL
From the text: as §1, §2

STK17A/DRAK1 = STK17A/DRAK1 (Homo sapiens, UniProt Q9UEE5)
STK17A/DRAK1, sequence (Q9UEE5 whole entry): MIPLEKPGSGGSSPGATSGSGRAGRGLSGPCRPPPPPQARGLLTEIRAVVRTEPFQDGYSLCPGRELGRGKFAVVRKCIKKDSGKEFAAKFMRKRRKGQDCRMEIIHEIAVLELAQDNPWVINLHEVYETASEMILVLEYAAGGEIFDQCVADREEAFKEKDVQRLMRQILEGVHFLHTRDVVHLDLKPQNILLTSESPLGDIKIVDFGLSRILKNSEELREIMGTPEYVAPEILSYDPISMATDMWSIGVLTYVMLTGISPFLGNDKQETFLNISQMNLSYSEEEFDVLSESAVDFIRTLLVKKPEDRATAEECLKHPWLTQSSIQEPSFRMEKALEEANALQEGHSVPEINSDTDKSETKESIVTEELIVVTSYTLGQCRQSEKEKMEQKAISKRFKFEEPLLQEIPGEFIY
From the text: as §1, §2

STK17B/DRAK2 = target: T1, STK17B/DRAK2 (Homo sapiens, UniProt O94768)
T1 sequence (O94768 1-372): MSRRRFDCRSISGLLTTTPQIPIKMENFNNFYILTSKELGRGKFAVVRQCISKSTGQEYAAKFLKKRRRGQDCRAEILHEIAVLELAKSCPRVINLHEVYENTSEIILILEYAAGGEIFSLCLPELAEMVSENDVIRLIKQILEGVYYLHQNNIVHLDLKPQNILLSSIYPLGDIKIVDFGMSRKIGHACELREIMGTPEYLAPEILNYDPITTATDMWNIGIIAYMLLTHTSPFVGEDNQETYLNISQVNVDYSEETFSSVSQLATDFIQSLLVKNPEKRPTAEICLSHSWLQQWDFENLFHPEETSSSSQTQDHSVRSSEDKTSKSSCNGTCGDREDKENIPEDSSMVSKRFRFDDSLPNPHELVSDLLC
From the text: as §1, §2

STK33 = STK33 (Homo sapiens, UniProt Q9BYT3)
From the text: as §1, §2

COc1ccc2[nH]c3c4[nH]c5ccc(OC)cc5c4c4c(c3c2c1)C(=O)NC4=O [GW296115]
inhibition at 1 µM (AURKB): 90% | inhibition at 1 µM (AURKC): 94.1% | inhibition at 1 µM (CHEK2): 92.5% | inhibition at 1 µM (DAPK2): 96.7% | inhibition at 1 µM (DAPK3/ZIPK): 96.9% | inhibition at 1 µM (LRRK2): 100% | inhibition at 1 µM (MAP3K11/MLK3): 92.4% | inhibition at 1 µM (MAP3K9/MLK1): 95.1% | inhibition at 1 µM (MAP4K4/HGK): 91.4% | inhibition at 1 µM (MINK1/MINK): 96% | inhibition at 1 µM (MYLK/MLCK/smMLCK): 95.4% | inhibition at 1 µM (PDGFRA): 91.4% | inhibition at 1 µM (PDGFRB): 99.8% | inhibition at 1 µM (PIM3): 94.4% | inhibition at 1 µM (PRKG2/PKG2): 98.8% | inhibition at 1 µM (RPS6KA6/RSK4): 94.7% | inhibition at 1 µM (SGK1/SGK): 91.2% | inhibition at 1 µM (STK17A/DRAK1): 99.6% | inhibition at 1 µM (STK17B/DRAK2): 100% | inhibition at 1 µM (STK33): 92%
